# Measured values from article PMC10820097, “Benzofuran Derivatives from Cortex Mori Radicis and Their Cholinesterase-Inhibitory Activity” (Molecules, 2024).
# Values joined by “and” are separate entries in the source; they are usually repeats but may differ in a detail not shown here. Equal values may be shown once. Read-outs that look alike come from different tables or passages of the source.
# Tests used:
# BChE (EC 3.1.1.8) [1] = target: T1, BChE (EC 3.1.1.8) (Equus caballus, UniProt P81908); assay: BChE inhibitory activity assay (modified Ellman's method); assay type: biochemical; conditions: for IC50: sample concentration that led to 50% enzyme activity loss, mean ± SD, triplicate; for BChE inhibitory effect, in words: up to 100 μM where stated
# T1 construct: BChE (EC 3.1.1.8, from equine serum); purchased Aladdin Industrial Co., Ltd. (Shanghai, China); host or cells: equine serum (natural source)
# T1 sequence (P81908 whole entry): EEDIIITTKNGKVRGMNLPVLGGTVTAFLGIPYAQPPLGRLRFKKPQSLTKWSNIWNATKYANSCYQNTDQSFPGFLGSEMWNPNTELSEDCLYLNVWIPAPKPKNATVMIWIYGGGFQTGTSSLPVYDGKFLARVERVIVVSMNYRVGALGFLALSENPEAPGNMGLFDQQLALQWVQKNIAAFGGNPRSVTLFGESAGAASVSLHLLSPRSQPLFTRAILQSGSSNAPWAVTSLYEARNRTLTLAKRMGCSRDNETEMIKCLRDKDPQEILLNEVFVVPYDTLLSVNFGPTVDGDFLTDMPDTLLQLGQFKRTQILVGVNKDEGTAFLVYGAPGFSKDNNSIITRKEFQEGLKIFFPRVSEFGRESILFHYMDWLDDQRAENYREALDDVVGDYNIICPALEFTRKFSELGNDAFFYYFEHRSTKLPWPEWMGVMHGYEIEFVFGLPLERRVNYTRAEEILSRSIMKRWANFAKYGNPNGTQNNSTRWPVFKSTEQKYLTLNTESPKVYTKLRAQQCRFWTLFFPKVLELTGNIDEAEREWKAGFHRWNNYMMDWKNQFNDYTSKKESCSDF
# Experimental: (§1) AChE (EC 3.1.1.7, from electric eel), BChE (EC 3.1.1.8, from equine serum), acetylthiocholine iodide (ATCI), butyrylthiocholine iodide (BTCI), and 5,5′-dithiobis (2-nitrobenzoic acid) (DTNB) were purchased from Aladdin Industrial Co., Ltd. (Shanghai, China).
# (§2) Briefly, AChE and BChE solutions (0.2 units/mL) and ATCI, BTCI, and DTNB solutions (10 mM) were prepared in PBS solution (0.1 M, pH 8.0). The test compound stock solutions (10 mM) were made using methanol, and five different concentrations of each compound were prepared by doubling the dilution with methanol to determine the half-maximal inhibitory concentration (IC50). Firstly, 160 μL of PBS, 2 μL of the test samples, 20 μL of AChE or BChE, and 10 μL of DTNB were mixed and preincubated at 37 °C for 10 min. Thereafter, 10 μL of ATCI or BTCI was added to initiate the reaction, which was incubated at 37 °C for 25 min. The absorbance was measured at 412 nm during incubation. The inhibition rate was calculated using the following formula: IR% = [(Ac − As)]/(Ac − Ab] × 100%, where Ab denotes the absorbance of the blank control (20 μL of water replacing the enzyme solution), Ac represents the absorbance of the control (2 μL of methanol replacing the sample solutions), and As denotes the absorbance of the sample. All of the tests for each sample were performed in triplicate. The IC50 value of each compound was obtained by plotting the inhibition rate against the logarithm of its concentration, and the data were expressed as the mean ± SD.
# AChE (EC 3.1.1.7) = target: T2, AChE (EC 3.1.1.7) (Electrophorus electricus, UniProt O42275); assay: biochemical; assay type: biochemical; conditions: for IC50: sample concentration that led to 50% enzyme activity loss, mean ± SD, triplicate
# T2 construct: AChE (EC 3.1.1.7, from electric eel); purchased Aladdin Industrial Co., Ltd. (Shanghai, China); host or cells: electric eel (natural source)
# T2 sequence (O42275 24-633): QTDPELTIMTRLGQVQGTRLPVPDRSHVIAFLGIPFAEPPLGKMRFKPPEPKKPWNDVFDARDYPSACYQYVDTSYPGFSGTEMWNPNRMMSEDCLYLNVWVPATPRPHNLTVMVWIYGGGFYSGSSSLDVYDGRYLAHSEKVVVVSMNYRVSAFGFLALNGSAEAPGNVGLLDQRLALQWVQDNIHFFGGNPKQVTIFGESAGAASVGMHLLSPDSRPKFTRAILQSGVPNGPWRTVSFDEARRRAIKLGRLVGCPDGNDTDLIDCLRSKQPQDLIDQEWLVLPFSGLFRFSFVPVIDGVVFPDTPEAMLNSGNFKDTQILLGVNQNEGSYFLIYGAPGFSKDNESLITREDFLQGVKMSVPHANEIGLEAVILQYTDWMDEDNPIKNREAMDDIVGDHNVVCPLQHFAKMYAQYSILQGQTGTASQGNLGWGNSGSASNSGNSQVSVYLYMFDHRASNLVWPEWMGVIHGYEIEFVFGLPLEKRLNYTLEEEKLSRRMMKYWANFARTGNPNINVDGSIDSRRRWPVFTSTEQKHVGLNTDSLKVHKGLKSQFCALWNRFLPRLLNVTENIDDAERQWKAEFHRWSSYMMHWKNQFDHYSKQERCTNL
# Experimental: as §1, §2
# BChE (EC 3.1.1.8) [2] = target: T1, BChE (EC 3.1.1.8); assay: Kinetic study of BChE inhibition (Lineweaver–Burk and secondary plots); assay type: biochemical; conditions: for BChE Inhibition Type: Lineweaver–Burk plots; for BChE αKi: from secondary plot of 1/Vmax vs [I], binding to ES complex; for BChE α (thermodynamic cooperativity factor): αKi/Ki
# Experimental: To determine the inhibition modes of the compounds, enzyme kinetic studies were carried out for the structurally representative inhibitors, namely, compounds 1, 8, 9, 11, and 14. […] For this type of interaction, inhibitors can bind to the free enzyme (E) and the enzyme–substrate (ES) complex, forming EI and ESI complexes, respectively. The Ki and αKi values for the inhibitors were determined from the secondary plots of the slope (Km/Vm) and the vertical intercept (1/Vm) from the Lineweaver–Burk plot as functions of the inhibitor concentration, respectively (Figure S2 in Supplementary Materials), and the thermodynamic cooperativity factor α differed among the five structurally diverse inhibitors (Table 3).
# as §1
# Using the same protocol as the inhibitory activity assay, kinetic studies of BChE inhibition were performed with a series of concentrations of substrate BTCI, namely, 0.1, 0.2, 0.3, 0.4, and 0.5 mM or 0.2, 0.4, 0.5, 0.6, and 0.7 mM. Three concentrations of each test compound were selected according to the IC50 value. The detection of absorbance was conducted during the enzymatic reaction at 10 min, 20 min, and 25 min. The change in absorbance per minute was referred to as the velocity of the enzyme-promoting reaction. The Lineweaver–Burk plots (double-reciprocal plots) were created by plotting the reciprocal of velocity (1/V) against the reciprocal of BTCI concentration (1/[BTCI]) for a compound at three concentrations, and the kinetic parameters, Michaelis constant (Km), and maximum velocity (Vmax) obtained therefrom were used to check the inhibition modes. The value of the inhibitor constant Ki was determined by referencing the secondary plot of the slope of the double-reciprocal lines (from the Lineweaver–Burk plot) as a function of [I], and the x intercept was equal to −Ki. Another secondary plot was fitted by 1/Vmax as a function of the inhibitor concentration [I], and the value of −αKi can be determined to be the x intercept therefrom.
# [3] = cis-trans photoisomerization under UV exposure (HPLC detection); assay type: physicochemical; conditions: UV exposure at 254 and 365 nm
# Text: The NMR data of 6 (Table 1 and Table 2) were identical to those of nigranol A previously isolated from Morus nigra Linn. The Δ7,8 double bond of nigranol A was formerly determined to be a Z-configuration according to the relatively large coupling constant (12.8 Hz) between H-8 and H-9, which is not applicable and convincing in view of the freely rotating single bond between C-8 and C-9. […] Fortunately, the crystals of compounds 1 and 6 were obtained, and single-crystal X-ray diffraction (XRD) analyses were conducted to determine the configuration of the Δ7,8 double bond. As a result, the isobutene moiety (C-9) and the carbonyl group (C-13), the larger substituent groups for C-8 and C-7, respectively, existed in cis- and trans-conformations in compounds 1 and 6, respectively (Figure 3). Therefore, compound 1 was determined to be (Z)-6-hydroxy-3-(3-methylbut-2-en-1-ylidene)benzofuran-2(3H)-one and named albaphenol A, while nigranol A (6) was revised as (E)-6-hydroxy-3-(3-methylbut-2-en-1-ylidene)benzofuran-2(3H)-one. […] Due to the cis–trans tautomerism also taking place slowly under natural light, the samples were stored in a 4 °C refrigerator under dark conditions, and the crystallizations of the two compounds were induced in nearly saturated methanol solution under the same conditions.
# BChE [4] = test system: BChE; set-up: method as in PMID 31459768; conditions: cited from earlier work
# BChE [5] = test system: BChE; set-up: method as in PMID 29786669; conditions: read-out: BChE IC50 in previous research; cited from earlier work
# [6] = from secondary plot of slope of Lineweaver–Burk lines vs [I], binding to free enzyme, read-out: BChE Ki
structure (smiles),measurement,setting,value
"CC(C)=CCc1c(O)cc(O)c(CC=C(C)C)c1-c1cc2ccc(O)cc2o1 [Compound 15, mulberrofuran V]",IC50,BChE (EC 3.1.1.8) [1]; read-out: IC50 BChE,27.1 ± 6.8 µM
same,IC50,AChE (EC 3.1.1.7),> 100 µM
"CC(C)=CCc1cc2cc(-c3cc(O)cc(O)c3)oc2cc1O [Compound 11, moracin N]",IC50,BChE (EC 3.1.1.8) [1]; read-out: IC50 BChE,13.5 ± 1.6 µM
same,IC50,AChE (EC 3.1.1.7),40.5 ± 4.7 µM
same,BChE Inhibition Type,BChE (EC 3.1.1.8) [2],Noncompetitive
same,BChE αKi,BChE (EC 3.1.1.8) [2],13.3 µM
same,Ki,BChE (EC 3.1.1.8) [2]; [6],12.7 µM
same,BChE α (thermodynamic cooperativity factor),BChE (EC 3.1.1.8) [2],1.05
"CC(C)=C/C=C1/C(=O)Oc2cc(O)ccc21 [Compound 6, (E)-6-hydroxy-3-(3-methylbut-2-en-1-ylidene)benzofuran-2(3H)-one]",IC50,BChE (EC 3.1.1.8) [1]; read-out: IC50 BChE,94.8 µM and > 100 µM
same,"BChE inhibitory effect, in words",BChE (EC 3.1.1.8) [1],no obvious inhibition
same,IC50,AChE (EC 3.1.1.7),> 100 µM
same,"AChE inhibitory effect, in words",AChE (EC 3.1.1.7); up to 100 μM where stated,no obvious inhibition
same,"time to almost reach equilibrium of cis-trans photoisomerization (1 and 6, ratio approximately 1:1)",[3],≤ 30 min
CC(C)=CCC/C(C)=C/Cc1c(O)ccc2cc(-c3cc(O)cc(O)c3CC=C(C)C)oc12 [mulberrofuran D],IC50,BChE [4],6.12 µM
"CC1(C)C=Cc2c(O)cc(-c3cc4ccc(O)cc4o3)cc2O1 [Compound 9, moracin D]",IC50,BChE (EC 3.1.1.8) [1]; IC50 BChE,9.5 ± 3.2 µM
same,IC50,AChE (EC 3.1.1.7),81.2 ± 3.9 µM
same,Ki,BChE (EC 3.1.1.8) [2],5.7 µM
same,BChE Inhibition Type,BChE (EC 3.1.1.8) [2],Mixed competitive
same,BChE αKi,BChE (EC 3.1.1.8) [2],25.2 µM
same,BChE α (thermodynamic cooperativity factor),BChE (EC 3.1.1.8) [2],4.42
"COc1cc(O)c(CC=C(C)C)c(-c2cc3ccc(O)cc3o2)c1CC=C(C)C [Compound 16, mulberrofuran N]",IC50,BChE (EC 3.1.1.8) [1]; read-out: IC50 BChE,32.8 ± 4.2 µM
same,IC50,AChE (EC 3.1.1.7),> 100 µM
CC(C)=CCCC1(C)C=Cc2c(ccc3cc(-c4cc(O)cc(O)c4CC=C(C)C)oc23)O1 (centres unmarked) [mulberrofuran D2],IC50,BChE [4],1.51 µM
"CC(C)=C/C=C1\C(=O)Oc2cc(O)ccc21 [Compound 1, (Z)-6-hydroxy-3-(3-methylbut-2-en-1-ylidene)benzofuran-2(3H)-one]",IC50,BChE (EC 3.1.1.8) [1]; read-out: IC50 BChE,45.5 ± 5.9 µM
same,IC50,AChE (EC 3.1.1.7),> 100 µM
same,"time to almost reach equilibrium of cis-trans photoisomerization (1 and 6, ratio approximately 1:1)",[3],≤ 30 min
same,BChE Inhibition Type,BChE (EC 3.1.1.8) [2],Mixed uncompetitive
same,BChE αKi,BChE (EC 3.1.1.8) [2],43.0 µM
same,Ki,BChE (EC 3.1.1.8) [2]; [6],93.4 µM
same,BChE α (thermodynamic cooperativity factor),BChE (EC 3.1.1.8) [2],0.46
"CC(C)=CCc1c(O)cc2c(c1-c1cc3ccc(O)cc3o1)C=CC(C)(C)O2 [Compound 14, cathafuran C]",selective index (AChE IC50/BChE IC50 ratio),BChE (EC 3.1.1.8) [1],over 38
same,IC50,BChE (EC 3.1.1.8) [1]; read-out: IC50 BChE,2.6 ± 0.2 µM
same,IC50,AChE (EC 3.1.1.7),> 100 µM
same,BChE Inhibition Type,BChE (EC 3.1.1.8) [2],Competitive
same,BChE αKi,BChE (EC 3.1.1.8) [2],22.7 µM
same,Ki,BChE (EC 3.1.1.8) [2]; [6],1.7 µM
same,BChE α (thermodynamic cooperativity factor),BChE (EC 3.1.1.8) [2],13.35
"COC(=O)C(CC=C(C)C)c1ccc(O)cc1O (centres unmarked) [Compound 3, methyl 2-(2,4-dihydroxyphenyl)-5-methylhex-4-enoate]",IC50,BChE (EC 3.1.1.8) [1]; read-out: IC50 BChE,> 100 µM
same,IC50,AChE (EC 3.1.1.7),> 100 µM
"CC(C)(O)C1Cc2cc3cc(-c4cc(O)cc(O)c4)oc3cc2O1 (centres unmarked) [Compound 12, moracin O]","BChE inhibitory effect, in words",BChE (EC 3.1.1.8) [1],neither moracin O (12) nor P (13) exhibited a significant inhibitory effect
same,IC50,BChE [5],28.2 µM
"CC1(C)Oc2cc3oc(-c4cc(O)cc(O)c4)cc3cc2C[C@H]1O [Compound 13, moracin P]","BChE inhibitory effect, in words",BChE (EC 3.1.1.8) [1],neither moracin O (12) nor P (13) exhibited a significant inhibitory effect
same,IC50,BChE [5],38 µM
"CC(C)(O)CCC(=O)c1ccc(O)cc1O [Compound 5, 1-(2,4-dihydroxyphenyl)-4-hydroxy-4-methylpentan-1-one]",IC50,BChE (EC 3.1.1.8) [1]; read-out: IC50 BChE,> 100 µM
same,IC50,AChE (EC 3.1.1.7),> 100 µM
"CCOC(=O)C(CC=C(C)C)c1ccc(O)cc1O (centres unmarked) [Compound 4, ethyl 2-(2,4-dihydroxyphenyl)-5-methylhex-4-enoate]",IC50,BChE (EC 3.1.1.8) [1]; read-out: IC50 BChE,61 ± 3.4 µM
same,IC50,AChE (EC 3.1.1.7),> 100 µM
"CC(C)=CCc1c(O)cc(-c2cc3ccc(O)cc3o2)cc1O [Compound 8, moracin C]",IC50,BChE (EC 3.1.1.8) [1]; read-out: IC50 BChE,27.9 ± 3.5 µM
same,IC50,AChE (EC 3.1.1.7),> 100 µM
same,BChE Inhibition Type,BChE (EC 3.1.1.8) [2],Mixed competitive
same,BChE αKi,BChE (EC 3.1.1.8) [2],71.1 µM
same,Ki,BChE (EC 3.1.1.8) [2]; [6],12.8 µM
same,BChE α (thermodynamic cooperativity factor),BChE (EC 3.1.1.8) [2],5.55
"COC(=O)/C(=C/C=C(C)C)c1ccc(O)cc1O [Compound 2, albaphenol B]",IC50,BChE (EC 3.1.1.8) [1]; read-out: IC50 BChE,> 100 µM
same,IC50,AChE (EC 3.1.1.7),> 100 µM
"COc1cc(O)cc(-c2cc3cc(O)c(OC)cc3o2)c1 [Compound 7, moracin B]",IC50,BChE (EC 3.1.1.8) [1]; read-out: IC50 BChE,> 100 µM
same,"BChE inhibitory effect, in words",BChE (EC 3.1.1.8) [1],did not inhibit
same,IC50,AChE (EC 3.1.1.7),> 100 µM
"Oc1cc(O)cc(-c2cc3ccc(O)cc3o2)c1 [Compound 10, moracin M]",IC50,BChE (EC 3.1.1.8) [1]; read-out: IC50 BChE,> 100 µM
same,"BChE inhibitory effect, in words",BChE (EC 3.1.1.8) [1],did not inhibit
same,IC50,AChE (EC 3.1.1.7),> 100 µM
same,IC50,BChE [5],38.1 µM
